Drawing on BindingDB's records for doi:10.1016/j.bmc.2009.07.047 (4Sc, 2009), this text covers EC50 for five compounds.

What is called pEC50 is −log10 of the EC50, conventionally taken in molar units. A low value points to a large EC50.

A short description of the assay: Inhibition of Aurora-B in human HCT116 cells by FACS-based endoreduplication assay. In general terms: A flow cytometer gives signals particle by particle.

pEC50: −log10 of the molar value. A value given as a limit tells only on which side of the number the result lay.

`COc1cc2c(Nc3ccc(-c4nc5ccccc5s4)c(Cl)c3)ncnc2cc1OCCCN1CCN(C)CC1` [N-(4-(benzo[d]thiazol-2-yl)-3-chlorophenyl)-6-methoxy-7-(3-(4-methylpiperazin-1-yl)propoxy)quinazolin-4-amine] showed a pEC50 of under 5.00. As for `COc1cc2c(Oc3ccc(-c4nc5ccccc5s4)cc3)ncnc2cc1OCCCN1CCCC1` [2-(4-(6-methoxy-7-(3-(pyrrolidin-1-yl)propoxy)quinazolin-4-yloxy)phenyl)benzo[d]thiazole], the figure is under 5.00; as for `COc1cc2c(Nc3ccc(-c4nc5ccccc5s4)c(F)c3)ncnc2cc1OCCCN1CCN(C)CC1` [N-(4-(benzo[d]thiazol-2-yl)-3-fluorophenyl)-6-methoxy-7-(3-(4-methylpiperazin-1-yl)propoxy)quinazolin-4-amine], under 5.00. On to `COc1cc2c(Nc3ccc(-c4nc5cc(Cl)ccc5s4)cc3)ncnc2cc1OCCCN1CCN(C)CC1` [N-[4-(6''-Chlorobenzo[d]thiazol-2''-yl)phenyl]-6'-methoxy-7'-[3-(4-methylpiperazin-1-yl)propoxy]quinazolin-4'-amine], for which the pEC50 was under 5.00. With `COc1cc2c(Oc3ccc(-c4nc5ccccc5s4)cc3)ncnc2cc1OCCCN1CCN(C)CC1` [2-(4-(6-methoxy-7-(3-(4-methylpiperazin-1-yl)propoxy)quinazolin-4-yloxy)phenyl)benzo[d]thiazole], the negative logarithm of the EC50 (pEC50) was under 5.00.
